Test results taken from patent US20020035061A1, “COMPOSITIONS AND METHODS FOR TREATING INFECTIONS USING CATIONIC PEPTIDES ALONE OR IN COMBINATION WITH ANTIBIOTICS” (priority 1996, published 2002).
Read-outs that look alike come from different tables or passages of the source.

Experiments:
Type in all cases: cell-based
E. coli = system: E. coli
S. marcescens = system: S. marcescens
A. calcoaceticus = system: A. calcoaceticus
P. aeruginosa = system: P. aeruginosa
S. aureus = system: S. aureus
E. faecalis = system: E. faecalis
S. epidermidis = system: S. epidermidis
S. maltophilia = system: S. maltophilia
E. cloacae = system: E. cloacae
K. pneumoniae = system: K. pneumoniae

| Sequence | MIC (E. coli; E. coli ECO005) [µg/mL] | MIC (S. marcescens; S. marcescens SMS003) [µg/mL] | MIC (A. calcoaceticus; A. calcoaceticus AC002) [µg/mL] | MIC (P. aeruginosa; P. aeruginosa PA004) [µg/mL] | MIC (S. aureus; S. aureus SA014) [µg/mL] | MIC (S. aureus; S. aureus SA093) [µg/mL] | MIC (E. faecalis; E. faecalis EFS001) [µg/mL] | MIC (E. faecalis; E. faecalis EFS008) [µg/mL] | MIC (S. epidermidis; S. epidermidis SE010) [µg/mL] | MIC (S. maltophilia; S. maltophilia SMA002) [µg/mL] | MIC (E. cloacae; E. cloacae ECL007) [µg/mL] | MIC (K. pneumoniae; K. pneumoniae KP001) [µg/mL] | further results |
| --- | --- | --- | --- | --- | --- | --- | --- | --- | --- | --- | --- | --- | --- |
| KRRWPWWPWRLI [MBI 11B7CNR] | – | – | – | – | – | – | – | – | – | – | – | – | MIC (E. coli; E. coli strain ECO005): 8 µg/mL; MIC (S. marcescens; S. marcescens strain SMS003): >128 µg/mL; MIC (A. calcoaceticus; A. calcoaceticus strain AC002): 4 µg/mL; MIC (P. aeruginosa; P. aeruginosa strain PA004): 64 µg/mL; MIC (S. aureus; S. aureus strain SA093): 2 µg/mL; MIC (E. faecalis; E. faecalis strain EFS001): 4 µg/mL; MIC (S. epidermidis; S. epidermidis strain SE010): 4 µg/mL; MIC (S. maltophilia; S. maltophilia strain SMA002): 32 µg/mL; MIC (E. cloacae; E. cloacae strain ECL007): 64 µg/mL; MIC (K. pneumoniae; K. pneumoniae strain KP001): 8 µg/mL |
| ILKKNPNNPNRK [MBI 11B4ACN] | – | – | – | – | – | – | – | – | – | – | – | – | MIC (E. coli; E. coli strain ECO005): 32 µg/mL; MIC (S. marcescens; S. marcescens strain SMS003): >128 µg/mL; MIC (A. calcoaceticus; A. calcoaceticus strain AC002): 4 µg/mL; MIC (P. aeruginosa; P. aeruginosa strain PA004): >128 µg/mL; MIC (S. aureus; S. aureus strain SA008): 1 µg/mL; MIC (E. faecalis; E. faecalis strain EFS008): 64 µg/mL; MIC (S. epidermidis; S. epidermidis strain SE010): 8 µg/mL; MIC (S. maltophilia; S. maltophilia strain SMA002): 64 µg/mL; MIC (E. cloacae; E. cloacae strain ECL007): >128 µg/mL; MIC (K. pneumoniae; K. pneumoniae strain KP001): 32 µg/mL |
| ALRWPWWPWRRK [MBI 11H01CN] | 8 | >128 | 2 | 128 | 2 | 1 | 2 | 8 | 2 | 32 | >128 | 8 | – |
| ILRWPWWPWRAK [MBI 11H11CN] | 16 | >128 | 4 | >128 | 4 | 1 | 2 | 8 | 4 | 64 | >128 | 16 | – |
| LRWPWWPW [MBI 11G26CN] | 32 | >128 | 2 | >128 | 4 | 0.5 | 2 | 4 | 4 | 128 | >128 | 32 | – |
| RWWWPWRRK [MBI 11G28CN] | 8 | >128 | 2 | 128 | 4 | 1 | 4 | 32 | 4 | 32 | >128 | 64 | – |
| ILRWPWAPWRRK [MBI 11H07CN] | 32 | >128 | 8 | >128 | 8 | 2 | 4 | 16 | 16 | 128 | >128 | 128 | – |
| LRWWWPWRRK [MBI 11G25CN] | 8 | >128 | 2 | 64 | 2 | 1 | 2 | 16 | 2 | 32 | >128 | 16 | – |
| ILAWPWWPWRRK [MBI 11H03CN] | 16 | >128 | 8 | >128 | 2 | 2 | 2 | 8 | 4 | 64 | >128 | 16 | – |
| KRRWVWWVWRLI [MBI 11F4CNR] | – | – | – | – | – | – | – | – | – | – | – | – | MIC (E. coli; E. coli strain ECO005): 32 µg/mL; MIC (S. marcescens; S. marcescens strain SMS003): >128 µg/mL; MIC (A. calcoaceticus; A. calcoaceticus strain AC002): 16 µg/mL; MIC (P. aeruginosa; P. aeruginosa strain PA004): 64 µg/mL; MIC (S. aureus; S. aureus strain SA093): 8 µg/mL; MIC (E. faecalis; E. faecalis strain EFS008): 32 µg/mL; MIC (S. epidermidis; S. epidermidis strain SE010): 8 µg/mL; MIC (S. maltophilia; S. maltophilia strain SMA002): 32 µg/mL; MIC (E. cloacae; E. cloacae strain ECL007): 32 µg/mL; MIC (K. pneumoniae; K. pneumoniae strain KP001): 32 µg/mL |
| ILRRWVWWVWRRK [MBI 11F5CN] | 8 | >128 | 4 | 32 | 4 | 2 | 2 | 8 | 4 | 16 | 128 | 8 | – |
| KRRWPWWPWKKLI [MBI 11CNR] | 8 | 128 | 4 | 32 | – | 4 | 4 | – | 4 | 32 | >128 | 4 | – |
| ILKKWPWWPWRRK [MBI 11ACN] | 16 | >128 | 2 | >128 | 8 | – | – | 64 | 4 | 64 | >128 | 16 | MIC (E. faecalis; E. faecalis EFS004): 8 µg/mL |
| IARWPWWPWRRK [MBI 11H02CN] | 16 | >128 | 4 | >128 | 2 | 1 | 2 | 16 | 4 | 64 | >128 | 32 | – |
| ILRWPWRRWPWRRK [MBI 11B19CN] | 8 | >128 | 4 | 128 | 4 | 2 | 2 | 32 | 4 | 32 | >128 | 64 | – |
| ILRWPWWPWWPWRRK [MBI 11A9CN] | – | – | – | – | – | – | – | – | – | – | – | – | MIC (E. coli; E. coli strain ECO005): 32 µg/mL; MIC (S. marcescens; S. marcescens strain SMS003): >128 µg/mL; MIC (A. calcoaceticus; A. calcoaceticus strain AC002): 8 µg/mL; MIC (P. aeruginosa; P. aeruginosa strain PA004): 128 µg/mL; MIC (S. aureus; S. aureus strain SA014): 4 µg/mL; MIC (S. aureus; S. aureus strain SA093): 2 µg/mL; MIC (E. faecalis; E. faecalis strain EFS001): 2 µg/mL; MIC (E. faecalis; E. faecalis strain EFS008): 8 µg/mL; MIC (S. epidermidis; S. epidermidis strain SE010): 4 µg/mL; MIC (S. maltophilia; S. maltophilia strain SMA002): 32 µg/mL; MIC (E. cloacae; E. cloacae strain ECL007): 128 µg/mL; MIC (K. pneumoniae; K. pneumoniae strain KP001): 32 µg/mL |
| ILKKNPNNPARRK [MBI 11CNX1] | 64 | >64 | – | – | – | – | – | – | – | >64 | >64 | >64 | MIC (A. calcoaceticus; A. calcoaceticus AC001): >64 µg/mL; MIC (P. aeruginosa; P. aeruginosa PA024): >64 µg/mL; MIC (S. aureus; S. aureus SA006): 2 µg/mL; MIC (E. faecalis; E. faecalis EFS004): 16 µg/mL |
